From BindingDB's records for doi:10.1016/j.bmcl.2007.01.081 (Roche Research Center, 2007) come the findings set out here.

By IC50 is commonly meant the concentration needed to halve the response being measured. Low readings indicate higher potency, high ones lower potency.

Molecules are shown by their SMILES.

The test system of one assay is SJSA-1. The assay is described as follows: Antiproliferative activity against human SJSA1 cells.
Another assay has as its target RKO. Briefly: Antiproliferative activity against human RKO cells.
The next assay deals with HCT-116. The assay is described as follows: Antiproliferative activity against human HCT116 cells.
A further assay has as its target MDA-MB-435. Briefly: Antiproliferative activity against human MDA435 cells.
Another assay concerns the target SW480. Briefly: Antiproliferative activity against human SW480 cells.

`O=C1N=C(NCc2cccs2)S/C1=C/c1ccc2ncccc2c1` displayed an IC50 with SJSA-1 of 4550 nM.
Regarding `O=C1N=C(N[C@@H](CO)Cc2ccccc2)SC1=Cc1ccc2ncccc2c1` [(R,Z)-2-(1-hydroxy-3-phenylpropan-2-ylamino)-5-(quinolin-6-ylmethylene)thiazol-4(5H)-one], the IC50 on RKO was determined as 1390 nM; against HCT-116, 1580 nM; against MDA-MB-435 it was 2030 nM; with SJSA-1, 3240 nM; against SW480, 3070 nM.
As to `O=C1N=C(N[C@@H]2C[C@H]2c2ccccc2)SC1=Cc1ccc2ncccc2c1` [(Z)-2-((1R,2S)-2-phenylcyclopropylamino)-5-(quinolin-6-ylmethylene)thiazol-4(5H)-one], the IC50 in the assay with SJSA-1 was determined as 1850 nM.
